These results are taken from article PMC2707017, “Synthesis and enzymatic evaluation of 2- and 4-aminothiazole-based inhibitors of neuronal nitric oxide synthase” (Beilstein Journal of Organic Chemistry, 2009).

The target of data set [1] is T1, bovine eNOS (Bos taurus, UniProt P29473). Particulars: nNOS over eNOS; cited from earlier work.
Data set [2] addresses T2, rat nNOS (Rattus norvegicus, UniProt P29476). To be noted: cited from earlier work.
For the next data set, the system named is neuronal damage. More on the design: method as in PMID 19235180. To be noted: intravenous administration, cerebral palsy rabbit model; cited from earlier work.
For data set [3], the target named is T2, rat nNOS. The data set is described as follows: hemoglobin capture assay, nNOS.
Description: In vitro enzyme assay. The NOS isoforms used were recombinant enzymes overexpressed in E. coli. Rat nNOS [6], bovine eNOS [7], and murine macrophage iNOS [8], and were overexpressed and isolated as reported. The formation of nitric oxide was monitored using a hemoglobin capture assay as described previously. […] For the determination of inhibition of iNOS, no additional Ca^2+ or calmodulin were added. The assay was initiated by the addition of enzyme, and the absorption of UV light at 400 nm was recorded over one minute. As NO was evolved and coordinated to the hemoglobin, the absorption at 400 nm increased, producing a value for the enzyme velocity under these conditions. A value for the initial rate was obtained when no inhibitor was added (v0). The velocity of the enzyme (v) was then determined in the presence of varying concentrations of inhibitor, until a concentration of inhibitor that reduced the enzyme velocity to half its initial value (v/v0 ~ 0.5) was discovered. Concentrations of inhibitor above and below this value were tested and a graph of v/v0 versus inhibitor concentration ([I]) was plotted. Experiments were repeated at least three times and until a R^2 >0.99 was obtained. Extrapolation of this graph allowed the determination of an IC50 value. The Ki can be estimated from the IC50 if the Km for the substrate is known, using the equations below.
On the set-up of data set [4]: method as in printed. Particulars: aminothiazole ring nitrogen; stated without measurement, ref not given; cited from earlier work.
For data set [5], the target named is T1, bovine eNOS. The data set is described as follows: hemoglobin capture assay, eNOS.
Description: (§1) The NOS isoforms used were recombinant enzymes overexpressed in E. coli. Rat nNOS [6], bovine eNOS [7], and murine macrophage iNOS [8], and were overexpressed and isolated as reported. The formation of nitric oxide was monitored using a hemoglobin capture assay as described previously. Briefly, a solution of nNOS or eNOS containing 10 µM L-arginine, 1.6 mM CaCl2, 11.6 µg/mL calmodulin, 100 µM DTT, 100 µM NADPH, 6.5 µM H4B, 125 µg/mL oxyhemoglobin, and varying concentrations of inhibitor in 100 mM Hepes (pH 7.4) was monitored at 30 °C. For the determination of inhibition of iNOS, no additional Ca^2+ or calmodulin were added. The assay was initiated by the addition of enzyme, and the absorption of UV light at 400 nm was recorded over one minute. As NO was evolved and coordinated to the hemoglobin, the absorption at 400 nm increased, producing a value for the enzyme velocity under these conditions. A value for the initial rate was obtained when no inhibitor was added (v0). The velocity of the enzyme (v) was then determined in the presence of varying concentrations of inhibitor, until a concentration of inhibitor that reduced the enzyme velocity to half its initial value (v/v0 ~ 0.5) was discovered. Concentrations of inhibitor above and below this value were tested and a graph of v/v0 versus inhibitor concentration ([I]) was plotted. […]
A further data set addresses murine iNOS (Mus musculus, UniProt P29477). The data set is described as follows: hemoglobin capture assay, iNOS.

Description for murine iNOS: as §1

Consider `NCCN[C@@H]1CNC[C@@H]1Cc1cccc(N)n1` (relative stereo) [Compound 1], for which, at bovine eNOS [1], the “selectivity over eNOS” value is listed as “more than 1000 fold”. Besides, at rat nNOS [2], the nNOS inhibitory potency result is “nanomolar”.

Turning to `Cc1cc(N)nc(C[C@H]2CNC[C@H]2NCCNCc2ccc(Cl)cc2)c1` (relative stereo) [Compound 2], in the data set on neuronal damage, the “protection against neuronal damage” value was “significant protection against neuronal damage”.

As to `Nc1nc(CC2CNCC2NCCNCc2ccc(Cl)cc2)cs1` (stereo not shown) [Compound 3], the inhibition constant Ki – broadly, the dissociation constant of the complex between target and ligand, obtained from inhibition or displacement – at rat nNOS [3] amounted to 10 µM; on bovine eNOS [5], 1000 µM; at murine iNOS, 50 µM. Further, the “pKa of ring nitrogen” value in data set [4] is reported as “≈ 6”.
